Experimental findings from patent US20090170759A1, “NEUROPROTECTIVE PEPTIDES” (priority 2007, published 2009) are described below.

For the experiment, the system named is rat hippocampal cultures. The experiment can be described thus: Neurite outgrowth assay (MAP2-FITC immunofluorescence), hippocampal cultures. The experiment is classed as cell-based. The source says:
Dissociated hippocampal and cortical cell cultures were established from embryonic day 18 rat fetuses as previously described (Mattson et al., 1994). Briefly, fetuses were removed via cesarean section from pregnant moms (Sprague-Dawley) anesthetized with halothane according to the AVMA Panel on Euthanasia. Pups were decapitated and the brains were removed and placed in HEPES-buffered Hank's Balanced Salt solution (HBSS; Gibco). The hippocampi and cortices were dissected out and pooled according to tissue-type. Tissue was trypsinized for 15 min (1 mg/ml trypsin-HBSS; Worthington), rinsed with fresh HBSS, incubated in trypsin inhibitor (1 mg/ml; Sigma) for 5 min, rinsed again with fresh HBSS and then triturated in 1 ml fresh HBSS with a fire-polished glass pipette. Dissociated cells were seeded at 30,000 cells/well onto poly-D-lysine coated 96-well plates (Collaborative BioScience). Each well contained 100 μl of Eagle's Minimal Essential Media (MEM; Gibco) supplemented with 26 mM NaHCO3 (Sigma), 56 mM glucose (Sigma), 15 mM KCl (Sigma), 1 mM sodium pyruvate (Sigma), 1.1 mM L-glutamine (Sigma), 10% (v/v) heat-inactivated fetal bovine serum (Hyclone), and 0.001% gentamicin sulfate (Sigma) (pH 7.4). Cells were allowed to attach for 24 h in a humidified 37° C. 5% CO2 incubator before experimental treatment. The culture media was aspirated and exchanged with fresh media every three days.
Twenty-four hours after plating, cultures were treated with vehicle (PBS+0.1% BSA), 100 ng of various growth factors (brain derived neurotrophic factor (BDNF; Promega), glial-derived neurotrophic factor (GDNF; Promega), nerve growth factor (NGF; Boehringer Mannheim), basic fibroblast growth factor (bFGF; Boehringer Mannheim), insulin-like growth factor-1 (IGF-1; Boehringer Mannheim), neurotrophin-3 (NT3; Calbiochem), neurotrophin-4 (NT4; Calbiochem), ciliary neurotrophic factor (CNTF; Calbiochem), epidermal growth factor (EGF; Calbiochem), vascular endothelial growth factor (VEGF; Calbiochem)), or rhEPO (prepared same as above; 10 fM-10 nM)). Each treatment condition was run in quadruplicate or octuplicate. On the third day in culture, the media was aspirated off and replaced with fresh media and test compound. At one week in culture, the cells were fixed with 10% phosphate-buffered formalin for 15 min, then rinsed with DPBS (Sigma) and placed in blocking serum for 30 min (horse serum; 1:50 dilution in DPBS; Vector Labs). Cultures were rinsed again with DPBS and then incubated in primary antibody for 2 hr (microtubule-associated protein-2 (MAP-2) is a selective marker for dendritic processes; anti-mouse monoclonal (Chemicon); 1:1000 dilution of MAP-2 in antibody diluent (Zymed)). Negative control wells were incubated in antibody diluent alone. Background signal was determined by blank wells (cell-free) incubated with or without antibody. Cultures were rinsed again with DPBS and then placed in fluorescein for 1 hr (FITC; anti-mouse IgG; rat adsorbed; 1:50 dilution in DPBS; Vector Labs). Cultures were rinsed a final time with DPBS and then the plates were read on a Cytofluor 4000 fluorescence plate reader. Neurite outgrowth was expressed as percent change from control (vehicle; mean fluorescence±SD).
Dissociated hippocampal and cortical cell cultures were established from embryonic day 18 rat fetuses as previously described (Mattson et al., 1994). Briefly, fetuses were removed via cesarean section from pregnant moms (Sprague-Dawley) anesthetized with halothane according to the AVMA Panel on Euthanasia. Pups were decapitated and the brains were removed and placed in HEPES-buffered Hank's Balanced Salt solution (HBSS; Gibco). The hippocampi and cortices were dissected out and pooled according to tissue-type. […]

“rhEPO: purified, recombinant human EPO (rhEPO), currently formulated and distributed under the trademarks of EPREX, ERYPO, or PROCRIT”: for the setting “Example 3, one week in culture”, the “neurite outgrowth response over control, hippocampal cultures” value was 12-44%. The “neurite outgrowth in rat hippocampal cultures (in words)” value (figure legends) is reported as “promotes neurite outgrowth”. In addition, the “neurite outgrowth promoting activity in hippocampus compared with growth factors” value (growth factors at 100 ng) was “superior to several growth factors including BDNF, NGF and VEGF”.
